Assay results as given in publication PMC10005332, “It Takes Two to Tango, Part II: Synthesis of A-Ring Functionalised Quinones Containing Two Redox-Active Centres with Antitumour Activities” (Molecules, 2023).
Read-outs that look alike come from different tables or passages of the source.

What was measured:
[1] = test system: A549 (human lung carcinoma); assay: MTT cytotoxicity assay, A549; format: cell-based; conditions: for IC50: Homo sapiens, A549, MTT, 72 h exposure, three independent experiments, read-out: Cytotoxic activity IC50 (95% CI) A549; for Selectivity index A549: ratio of cytotoxicity L929 / A549
Method: (§1) In this study, the IC50 was obtained in micromolar concentrations, using the colourimetric MTT (3-(4,5-dimethylthiazol-2-yl)-2,5-diphenyl tetrazolium bromide)) assay, and doxorubicin was used as the positive control. […] The activity against the non-tumoural murine fibroblast cell line L929 was also evaluated in order to study the cytotoxicity behaviour of each compound and to understand their respective relative selectivity. The selectivity index was obtained using the ratio of measured cytotoxicity between the L929 cell line and each of the cancer cell lines, and the results are presented in Table 2.
(§2) The in vitro cytotoxicity activity of the compounds was evaluated by the colorimetric MTT (3-(4,5-dimethylthiazol-2-yl)-2,5-diphenyl tetrazolium bromide)) assay using the following tumor cell lines: HCT-116 (colon carcinoma), PC3 (prostate), SNB-19 (glioblastoma), K-562 (myelogenous leukaemia), HL-60 (human promyelocytic leukaemia), B16 (murine melanoma), A549 (human lung carcinoma), KG1 (human acute myeloid leukaemia), and RAJI (human Burkitt’s lymphoma), which were provided by the National Cancer Institute (Bethesda, MD, USA). The L929 cell line (mouse fibroblast L cells NCTC clone 929) employed in this study as a control cell line was obtained from the American Type Culture Collection (Manassas, VA, USA). The cell lines (Table S4) were maintained in flasks containing RPMI 1640 or DMEM medium supplemented with 10% bovive fetal sérum, 100 U/mL penicillin, and 100 μg/mL streptomycin at 37 °C and in 5% CO2 atmosphere. The compounds tested were dissolved in DMSO. Doxorubicin served as the positive control. Cell treatments were performed with three replicates and the cells were mycoplasma free. After 72 h incubation, 100 μL of MTT solution (0.5 mg/mL) was added to each well, and the cells were incubated for 3 h. The supernatant was removed and 100 μL of DMSO was added and the absorbance at 595 nm was measured using Victor Nivo Multimode plate reader (PerkinElmer, Waltham, MA, USA). The absorbances obtained were used to calculate the IC50 values by nonlinear regression employing appropriate statistical software.
(§3) The in vitro cytotoxicity activity of compounds was evaluated by the colorimetric MTT (3-(4,5-dimethylthiazol-2-yl)-2,5-diphenyl tetrazolium bromide)) assay using tumor cell lines: HCT-116 (colon carcinoma), PC3 (prostate), SNB-19 (glioblastoma), K-562 (myelogenous leukaemia), HL-60 (human promyelocytic leukaemia), B16 (murine melanoma), A549 (human lung carcinoma), KG1 (human acute myeloid leukaemia) and RAJI (human Burkitt's lymphoma), which were provided by the National Cancer Institute (Bethesda, MD, USA). The L929 cell line (mouse fibroblast L cells NCTC clone 929) employed in this study as a control cell line was obtained from the American Type Culture […]
(§4) Collection (Manassas, VA, USA). Cell lines (Table 01) were maintained in flasks containing RPMI 1640 or DMEM medium supplemented with 10% bovive fetal sérum, 100 U/mL penicillin, and 100 μg/mL streptomycin at 37 °C and 5% CO2 atmosphere.
(§5) Compounds tested were dissolved in DMSO. Doxorubicin served as positive control. Cell treatments were performed with three replicates and cells were mycoplasma-free. After 72 h incubation, 100 μL of MTT solution (0.5 mg/mL) was added to each well, and cells were incubated for 3 h. The supernatant was removed and 100 μL of DMSO was added and the absorbance at 595 nm was measured using Victor Nivo Multimode plate reader

[2] = test system: RAJI (human Burkitt’s lymphoma); assay: MTT cytotoxicity assay, RAJI; format: cell-based; conditions: for IC50: Homo sapiens, Raji, 72 h, MTT, 72 h exposure, three independent experiments, read-out: Cytotoxic activity IC50 (95% CI) RAJI; for Selectivity index RAJI: ratio of cytotoxicity L929 / RAJI
Method: as §1, §2, §3, §4, §5

B16 (murine melanoma) = assay: MTT cytotoxicity assay, B16; format: cell-based; conditions: for IC50: Mus musculus, MTT, 72 h exposure, three independent experiments, read-out: Cytotoxic activity IC50 (95% CI) B16; for Selectivity index B16: ratio of cytotoxicity L929 / B16
Method: as §1, §2, §3, §4, §5

[3] = test system: HL60 (human pro-myelocytic leukaemia); assay: MTT cytotoxicity assay, HL60; format: cell-based; conditions: for IC50: MTT, 72 h exposure, three independent experiments, read-out: Cytotoxic activity IC50 (95% CI) HL60; for Selectivity index HL60: ratio of cytotoxicity L929 / HL60
Method: as §1, §2, §3, §4, §5

[4] = test system: PC3 (human prostate adenocarcinoma); assay: MTT cytotoxicity assay, PC3; format: cell-based; conditions: for IC50: Homo sapiens, MTT, 72 h exposure, three independent experiments, read-out: Cytotoxic activity IC50 (95% CI) PC3; for Selectivity index PC3: ratio of cytotoxicity L929 / PC3
Method: as §1, §2, §3, §4, §5

[5] = test system: K-562 (human chronic myeloid leukaemia); assay: MTT cytotoxicity assay, K-562; format: cell-based; conditions: for IC50: Homo sapiens, K562, MTT, 72 h exposure, three independent experiments, read-out: Cytotoxic activity IC50 (95% CI) K-562; for Selectivity index K-562: ratio of cytotoxicity L929 / K-562
Method: as §1, §2, §3, §4, §5

[6] = test system: KG1 (human acute myeloid leukaemia); assay: MTT cytotoxicity assay, KG1; format: cell-based; conditions: for IC50: Homo sapiens, MTT, 72 h exposure, three independent experiments, read-out: Cytotoxic activity IC50 (95% CI) KG1; for Selectivity index KG1: ratio of cytotoxicity L929 / KG1
Method: as §1, §2, §3, §4, §5

[7] = test system: SNB-19 (human astrocytoma); assay: MTT cytotoxicity assay, SNB-19; format: cell-based; conditions: for IC50: Homo sapiens, SNB-19, MTT, 72 h exposure, three independent experiments, read-out: Cytotoxic activity IC50 (95% CI) SNB-19; for Selectivity index SNB-19: ratio of cytotoxicity L929 / SNB-19
Method: as §1, §2, §3, §4, §5

[8] = MTT cytotoxicity assay, L929 control line; format: cell-based, mouse; conditions: mouse, L929 fibroblast cells (non-tumoral control line), 72 h exposure, read-out: Cytotoxic activity IC50 (95% CI) L929
Method: as §1, §2, §3, §4, §5

[9] = test system: L929 cells (non-tumoral mouse fibroblast); assay: MTT cytotoxicity assay, L929 control line; format: cell-based; conditions: 72 h exposure, read-out: Cytotoxic activity IC50 (95% CI) L929
Method: as §1, §2, §3, §4, §5

[10] = test system: HCT-116 (human colorectal carcinoma); assay: MTT cytotoxicity assay, HCT-116; format: cell-based; conditions: for IC50: Homo sapiens, HCT-116, 72 h, MTT, 72 h exposure, three independent experiments, read-out: Cytotoxic activity IC50 (95% CI) HCT-116; for Selectivity index HCT-116: ratio of cytotoxicity L929 / HCT-116
Method: as §1, §2, §3, §4, §5

## C#CCNC1=CC(=O)c2c(O)cccc2C1=O [Compound 18b, 5-hydroxy-2-(prop-2-yn-1-ylamino)naphthalene-1,4-dione]
[1]
  IC50: 15 µM
  Selectivity index A549: 1.6
[2]
  IC50: 23.2 µM
  Selectivity index RAJI: 1.0
B16 (murine melanoma)
  IC50: 8.65 µM
  Selectivity index B16: 2.8
[3]; Homo sapiens, HL-60, 72 h
  IC50: > 100 µM
[3]
  Selectivity index HL60: 0.2
[4]
  IC50: > 100 µM
  Selectivity index PC3: 0.2
[5]
  IC50: 25 µM
  Selectivity index K-562: 1.0
[6]
  IC50: > 100 µM
  Selectivity index KG1: 0.2
[7]
  IC50: 15 µM
  Selectivity index SNB-19: 1.6
[8]
  IC50 at 72 h: 24 µM
[9]
  IC50: 23.9 µM

## O=C1C(=O)c2ccccc2C2=C1CC(Cn1cc(CNC3=CC(=O)c4c(I)cccc4C3=O)nn1)O2 (stereo not drawn) [Compound 20a, 2-((4-(((5-iodo-1,4-dioxo-1,4-dihydronaphthalen-2-yl)amino)methyl)-1H-1,2,3-triazol-1-yl)methyl)-2,3-dihydronaphtho[1,2-b]furan-4,5-dione]
[1]
  IC50: 15.3 µM
  Selectivity index A549: 0.4
[2]
  IC50: 2.8 µM
  Selectivity index RAJI: 2.0
B16 (murine melanoma)
  IC50: 4.19 µM
  Selectivity index B16: 1.3
[3]; Homo sapiens, HL-60, 72 h
  IC50: 2.84 µM
[3]
  Selectivity index HL60: 2.0
[4]
  IC50: 9.79 µM
  Selectivity index PC3: 0.6
[10]
  IC50: 5.47 µM
  Selectivity index HCT-116: 1.0
[5]
  IC50: 5.56 µM
  Selectivity index K-562: 1.0
[6]
  IC50: 25.3 µM
  Selectivity index KG1: 0.2
[7]
  IC50: 8.5 µM
  Selectivity index SNB-19: 0.7
[8]
  IC50 at 72 h: 5.59 µM

## CC1(C)OC2=C(C(=O)C(=O)c3ccccc32)C1n1cc(CNC2=CC(=O)c3cccc(OCc4ccccc4)c3C2=O)nn1 (stereo not drawn) [Compound 19d, 3-(4-(((8-benzyloxy-1,4-dioxo-1,4-dihydronaphthalen-2-yl)amino)methyl)-1H-1,2,3-triazol-1-yl)-2,2-dimethyl-2,3-dihydronaphtho[1,2-b]furan-4,5-dione]
[1]
  IC50: 1.11 µM
  Selectivity index A549: 2.1
[2]
  IC50: 1.26 µM
  Selectivity index RAJI: 1.8
B16 (murine melanoma)
  IC50: 0.93 µM
  Selectivity index B16: 2.5
[3]; Homo sapiens, HL-60, 72 h
  IC50: 0.3 µM
[3]
  IC50: 0.34 µM
  Selectivity index HL60: 6.7
[4]
  IC50: 1.23 µM
  Selectivity index PC3: 1.9
[10]
  IC50: 0.53 µM
  Selectivity index HCT-116: 4.3
[5]
  IC50: 1.04 µM
  Selectivity index K-562: 2.2
[6]
  IC50: 2.94 µM
  Selectivity index KG1: 0.8
[7]
  IC50: 0.76 µM
  Selectivity index SNB-19: 3.0
[8]
  IC50 at 72 h: 2.29 µM

## O=C1C(=O)c2ccccc2C2=C1CC(Cn1cc(CNC3=CC(=O)c4cccc(OCc5ccccc5)c4C3=O)nn1)O2 (stereo not drawn) [Compound 20d, 2-((4-(((8-benzyloxy-1,4-dioxo-1,4-dihydronaphthalen-2-yl)amino)methyl)-1H-1,2,3-triazol-1-yl)methyl)-2,3-dihydronaphtho[1,2-b]furan-4,5-dione]
[1]
  IC50: 27.4 µM
  Selectivity index A549: 0.3
[2]
  IC50: 4.32 µM
  Selectivity index RAJI: 2.2
B16 (murine melanoma)
  IC50: 9.21 µM
  Selectivity index B16: 1.0
[3]; Homo sapiens, HL-60, 72 h
  IC50: 3.74 µM
[3]
  Selectivity index HL60: 2.5
[4]
  IC50: 12.8 µM
  Selectivity index PC3: 0.7
[10]
  IC50: 6.16 µM
  Selectivity index HCT-116: 1.5
[5]
  IC50: 10.4 µM
  Selectivity index K-562: 0.9
[6]
  IC50: 8.9 µM
  Selectivity index KG1: 1.1
[7]
  IC50: 10.2 µM
  Selectivity index SNB-19: 0.9
[8]
  IC50 at 72 h: 9.43 µM

## CC1(C)OC2=C(CC1Cn1cc(CNC3=CC(=O)c4cccc(OCc5ccccc5)c4C3=O)nn1)C(=O)C(=O)c1ccccc12 (stereo not drawn) [Compound 21d, 3-((4-(((8-benzyloxy-1,4-dioxo-1,4-dihydronaphthalen-2-yl)amino)methyl)-1H-1,2,3-triazol-1-yl)methyl)-2,2-dimethyl-3,4-dihydro-2H-benzo[h]chromene-5,6-dione]
[1]
  IC50: 2.61 µM
  Selectivity index A549: 2.0
[2]
  IC50: 28.7 µM
  Selectivity index RAJI: 0.2
B16 (murine melanoma)
  IC50: 5.12 µM
  Selectivity index B16: 1.0
[3]; Homo sapiens, HL-60, 72 h
  IC50: 0.89 µM
[3]
  Selectivity index HL60: 5.9
[4]
  IC50: 9.76 µM
  Selectivity index PC3: 0.5
[10]
  IC50: 4.16 µM
  Selectivity index HCT-116: 1.3
[5]
  IC50: 10.1 µM
  Selectivity index K-562: 0.5
[6]
  IC50: 11.5 µM
  Selectivity index KG1: 0.5
[7]
  IC50: 3.83 µM
  Selectivity index SNB-19: 1.4
[8]
  IC50 at 72 h: 5.27 µM

## COc1cccc2c1C(=O)C(NCc1cn(CC3CC4=C(O3)c3ccccc3C(=O)C4=O)nn1)=CC2=O (stereo not drawn) [Compound 20c, 2-((4-(((8-methoxy-1,4-dioxo-1,4-dihydronaphthalen-2-yl)amino)methyl)-1H-1,2,3-triazol-1-yl)methyl)-2,3-dihydronaphtho[1,2-b]furan-4,5-dione]
[1]
  IC50: 24.5 µM
  Selectivity index A549: 4.1
[2]
  IC50: 37 µM
  Selectivity index RAJI: 2.7
B16 (murine melanoma)
  IC50: 44.1 µM
  Selectivity index B16: 2.3
[3]; Homo sapiens, HL-60, 72 h
  IC50: 38.3 µM
[3]
  Selectivity index HL60: 2.6
[4]
  IC50: > 100 µM
[10]
  IC50: > 100 µM
[5]
  IC50: > 100 µM
[6]
  IC50: 39.4 µM
  Selectivity index KG1: 2.5
[7]
  IC50: 49.6 µM
  Selectivity index SNB-19: 2.0
[8]
  IC50 at 72 h: > 100 µM
